Reference: PMC6273963, “Design, Synthesis, and Biological Evaluation of Some Novel Pyrrolizine Derivatives as COX Inhibitors with Anti-Inflammatory/Analgesic Activities and Low Ulcerogenic Liability” (Molecules, 2016)
Entries after “also recorded” stand apart in the source; their conditions may differ.

Columns and labels:
thermal pain (hot plate) = assay: Hot-plate test (analgesic activity); format: in vivo, rat; details: IP; for analgesic activity (in words): 0.24 and 0.48 mmol/kg, 2 h after injection, compared with ibuprofen
Experimental: A hot-plate was used to induce thermal pain and the cutoff time was fixed to 15 s [30]. […] The analgesic activity of the novel pyrrolizines were carried out using the thermal model (hot-plate test) according to a previous report [30]. An electronically controlled hot-plate (Harvard Apparatus Ltd., Kent, UK) was used and the cut-off time was 15 s and the temperature was adjusted to 52 ± 0.1 °C. Animals were then divided into groups of six animal each. Rats were assigned numbers of 1–6 in each group. The reference drug was given intraperitoneally at a dose of 50 mg/kg (0.24 mmol/kg) and 100 mg/kg (0.48 mmol/kg). […] The response latencies (time elapsed until licking paw or jumping) were measured and expressed as mean ± SEM. The percent changes (analgesic effects) of the tested compounds were calculated as percent change in latencies divided by baseline time (100 × (T1 − T0)/T0) and results were expressed as % change ± SEM, Figure 6.

[1] = tested on: stomach mucosa, submucosa and mucosal glands; assay: Histopathological study of rat stomach; format: in vivo; details: rats of the ulcerogenicity test, haematoxylin and eosin stain
Description: The stomachs of the rats used in ulcerogenicity test were subjected to a histopathological study to visualize the deep effects of ibuprofen and tested compounds on the stomach mucosa, submucosa and mucosal glands. The specimens were stained with haematoxylin and eosin stain [33].
The study investigated the deep effect of the tested compounds on the mucosa, submucosa and mucosal gland. The stomachs which were opened longitudinally along the greater curvature were used and the specimens were taken from the stomachs of all cases. These specimens were fixed in 10% formalin solution for 72 h. The samples were processed and embedded in paraffin wax. Microtomy was done and 5 microns tissue sections were obtained and mounted on clean glass slides.

rat stomach mucosa = assay: Acute ulcerogenicity study; format: in vivo; details: oral, 0.48 mmol/kg; for Ulcerogenicity UI (ulcer index): three days, n = 6
Experimental: GIT toxicity is the main serious side effect of the NSAIDs. In this work, the ulcerogenicity of the novel compounds 12–19 was evaluated according to the previous reported methodology. The tested compounds 12–19 and ibuprofen were given orally in a dose of 0.48 mmol/kg.
(§1) Adult albino rats of both sex weighing 100–140 g were used in evaluation of the anti-inflammatory, analgesic, ulcerogenic activity in addition to the histopathological study of the new pyrrolizines 12–19. Animal ethical use clearance was obtained from the Ethical Committee at the College of Pharmacy, Umm Al-Qura University. Normalization of the animals with laboratory conditions were achieved by keeping them in laboratory one week before starting the experiments. Standard rat pellet diet was used for feeding animals and water ad libitum.
GIT toxicity was evaluated according to the previous report. Adult albino rats of both sexes were divided into groups of six animals each. The test compounds were dissolved first in 0.5 mL DMSO, then CMC (1%) was added dropwise with trituration. Rats were fasted 20 h before drug administration. The eight tested compounds and ibuprofen were given orally in a dose of 0.24 and 0.48 mmol/kg/day suspended in 1% CMC, while the control group received vehicle (1% CMC containing few drops of DMSO). Rats were then fasted for 2 h, allowed to feed for 2 h then fasted again for another 20 h. Other doses were given in the second and third days. In the fourth day, Pentobarbital (60 mg/kg IP) was used to induce deep anesthesia then rats were sacrificed. The stomachs were removed, opened along with the greater curvature and rinsed with 0.9% saline. The number of mucosal damages (red spots) were counted using magnifying lens and their severity (ulcerogenic severity) was graded in a scale from 0 to 3 as follows: (0) normal (no injury), (0.5) red coloration, (1) spot ulcer, (1.5) hemorrhagic streaks, (2) ulcer > 3 mm, (3) ulcer > 5 mm. The ulcer index was calculated using the following equation ulcer index (UI) = UN + US + UP/10, where UN is the average number pf ulcers per animal, US is the average of severity score, UP is the percent of animal with ulcer.

[2] = tested on: carrageenan-induced rat paw edema; assay: Carrageenan-induced rat paw edema model (anti-inflammatory activity); format: in vivo; parameters: key to Potency (anti-inflammatory activity of tested compound/ibuprofen): ratio of % inhibition of edema (compound / ibuprofen); ibuprofen = 1.00; details: for % Inhibition in Edema Thickness 1 h: 1 h after induction of inflammation; for % Inhibition in Edema Thickness 1 h / % Inhibition in Edema Thickness 2 h / % Inhibition in Edema Thickness 3 h: IP, dose molecularly equivalent to ibuprofen, n = 6; for % Inhibition in Edema Thickness 2 h: 2 h after induction of inflammation; for % Inhibition in Edema Thickness 3 h: 3 h after induction of inflammation; for Potency (anti-inflammatory activity of tested compound/ibuprofen): after 3 h of induction of inflammation, relative to ibuprofen; for anti-inflammatory activity (in words): compared with ibuprofen and parent compound 12
Description: The carrageenan-induced rat paw edema model was utilized to investigate the anti-inflammatory activity of compounds 12–19 relative to ibuprofen as a reference drug.
as §1
The anti-inflammatory activity of the novel compounds 12–19 was evaluated in comparison with ibuprofen as a standard, using a rat paw edema model as described by Winter et al.. Adult albino rats of both sexes (100–140 gm) were used. Rats were uniformly hydrated by giving 3 mL water for each rat through gastric inoculation to reduce variability to edema response. Animals were then divided into groups of six animal each. The control group was given saline solution containing few drops of sodium carboxymethyl cellulose (CMC) 1% and DMSO. Ibuprofen (50 and 100 mg/kg) was given as standard drug. The new compounds 12–19 in a dose molecularly equivalent to ibuprofen were dissolved in 0.5 mL DMSO and CMC 1% was added dropwise with continuous triturating to complete the specified volume. The tested compounds were administered intraperitoneally (IP). The induction of inflammation was achieved by subcutaneous (SC) injection of carrageenan-sodium gel, into the sub-plantar region of the right hind paw. The dorsoventral diameter (thickness) of the right and left hind paw of each rat was measured using digital calipers with accuracy of 0.01 mm (Cole-Parmer, Vernon Hills, IL, USA). The thickness of edema was measured 1, 2 and 3 h after induction of inflammation. The left hind paw diameter served as a control for the degree of inflammation in the right hind paw. The changes in the edema thickness were expressed as mean ± SEM, Figure 4. The anti-inflammatory activity was calculated as % inhibition of inflammation = (1 − Lt/Lc) × 100. Where Lt is the mean increase in paw thickness in rats treated with the tested compounds and Lc is the mean increase in paw thickness in control group. Data were collected, and statistically analyzed by One way ANOVA followed by student-Newman-Keuls multiple comparison test, Table 2.

5-LOX = tested on: 5-LOX; parameters: method as in PMID 8021931, PMID 9396390, PMID 12660020, PMID 19719242; details: literature values, Figures 1 and 2; cited from earlier work
COX-1 = details: cited from earlier work; for IC50: literature values, Figures 1 and 2
COX-2 = tested on: COX-2; parameters: method as in PMID 10027870, PMID 8021931, PMID 12660020; details: literature values, Figures 1 and 2; cited from earlier work
mPGES-1 = tested on: mPGES-1; parameters: method as in PMID 19719242; details: cell free; cited from earlier work
rat paw edema = tested on: rat paw edema; parameters: method as in PMID 19913956; details: in comparison with ketorolac; cited from earlier work
[3] = target: T1, COX-2 (human recombinant) (Homo sapiens, UniProt P35354); assay: COX colorimetric inhibitor screening assay, COX-2; details: for SI (COX-2 selectivity index = IC50 of COX-1/IC50 of COX-2): in vitro
T1 sequence (P35354 18-604): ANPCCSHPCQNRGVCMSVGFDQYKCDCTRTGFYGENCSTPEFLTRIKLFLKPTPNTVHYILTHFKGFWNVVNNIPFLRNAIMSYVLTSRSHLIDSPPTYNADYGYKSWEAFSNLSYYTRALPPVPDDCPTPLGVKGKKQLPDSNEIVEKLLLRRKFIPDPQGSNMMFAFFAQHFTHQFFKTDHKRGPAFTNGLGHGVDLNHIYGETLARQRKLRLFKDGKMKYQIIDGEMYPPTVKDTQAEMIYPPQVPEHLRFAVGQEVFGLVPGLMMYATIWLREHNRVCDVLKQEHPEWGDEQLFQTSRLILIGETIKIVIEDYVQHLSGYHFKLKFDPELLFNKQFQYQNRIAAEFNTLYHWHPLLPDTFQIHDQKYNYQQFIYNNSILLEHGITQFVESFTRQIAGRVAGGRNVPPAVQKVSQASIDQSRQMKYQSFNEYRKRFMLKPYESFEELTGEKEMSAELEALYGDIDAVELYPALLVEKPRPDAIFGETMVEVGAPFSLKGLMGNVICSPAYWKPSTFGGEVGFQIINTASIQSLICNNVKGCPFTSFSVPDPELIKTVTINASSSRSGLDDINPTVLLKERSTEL

COX-1 (ovine) = target: T2, COX-1 (ovine) (Ovis aries, UniProt P05979); assay: COX colorimetric inhibitor screening assay, COX-1
T2 sequence (P05979 25-600): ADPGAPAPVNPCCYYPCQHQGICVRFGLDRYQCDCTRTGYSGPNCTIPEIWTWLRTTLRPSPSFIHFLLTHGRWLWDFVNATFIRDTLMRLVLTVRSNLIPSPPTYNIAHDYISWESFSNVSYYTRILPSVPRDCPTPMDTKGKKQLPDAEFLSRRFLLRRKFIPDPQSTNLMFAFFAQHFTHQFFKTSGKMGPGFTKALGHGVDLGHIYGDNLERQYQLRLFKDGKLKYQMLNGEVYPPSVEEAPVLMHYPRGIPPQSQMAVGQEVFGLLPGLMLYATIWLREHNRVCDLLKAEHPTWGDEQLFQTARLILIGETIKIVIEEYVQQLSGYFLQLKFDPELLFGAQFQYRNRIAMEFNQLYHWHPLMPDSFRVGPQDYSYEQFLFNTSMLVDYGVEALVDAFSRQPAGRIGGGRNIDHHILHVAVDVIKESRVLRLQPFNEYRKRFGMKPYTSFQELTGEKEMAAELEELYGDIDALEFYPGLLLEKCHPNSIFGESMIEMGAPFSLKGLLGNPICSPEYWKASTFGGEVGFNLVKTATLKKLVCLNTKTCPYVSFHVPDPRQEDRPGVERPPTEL

SMILES	analgesic activity (in words) (thermal pain (hot plate))	histopathological findings in stomach transverse sections [1]	Ulcerogenicity % Protection (% inhibition of ulcer relative to ibuprofen) (rat stomach mucosa) [%]	% Inhibition in Edema Thickness 1 h [2] [%]	% Inhibition in Edema Thickness 2 h [2] [%]	% Inhibition in Edema Thickness 3 h [2] [%]	Potency (anti-inflammatory activity of tested compound/ibuprofen) [2]	IC50 (5-LOX) [nM]	IC50 (COX-1) [nM]	IC50 (COX-2) [nM]	further results
CC(C)Cc1ccc(C(C)C(=O)Nc2c(C#N)c3n(c2C(=O)Nc2ccc(Br)cc2)CCC3)cc1 (racemic) [Compound 19, (R,S)-N-(4-Bromophenyl)-7-cycno-6-(2-(4-isobutylphenyl)propanamido)-2,3-dihydro-1H-pyrrolizine-5-carboxamide]	lower than that of ibuprofen	normal mucosal glands with no histopathological effects	100	13.82	22.44	38.79	0.95				melting point: 217 to 219 °C; anti-inflammatory activity (in words) [2]: weak activity after the first hour
CC1(C)Cc2c(-c3ccccc3)c(-c3ccc(Cl)s3)c(CC(=O)O)n2C1 [Compound 3]								250	210		
Cc1ccc(-c2c(-c3ccc(S(C)(=O)=O)cc3)cn3c2CCC3)cc1 [Compound 4]								10000	700	5	
COC1c2c(-c3ccccc3)c(-c3ccc(Cl)cc3)c(C)n2CC1(C)C (stereo not drawn) [Compound 5]								60	500	7500	
Cc1ccc(S(=O)(=O)NC(=O)Cc2c(-c3ccc(Cl)cc3)c(-c3ccccc3)c3n2CC(C)(C)C3)cc1 [Compound 6]								260			IC50 (mPGES-1): 4800 nM
N#Cc1c(N)c(C(=O)Nc2ccc(C(=O)O)cc2)n2c1CCC2 [Compound 7]											reduction in rat paw edema (rat paw edema): approximately 50%
Cc1ccc(S(=O)(=O)Nc2c(C#N)c3n(c2C(=O)Nc2ccc(Br)cc2)CCC3)cc1 [Compound 17, N-(4-Bromophenyl)-7-cyano-6-(4-methylphenylsulfonamido)-2,3-dihydro-1H-pyrrolizine-5-carboxamide]	higher analgesic activity than ibuprofen; also recorded: the most active	little histopathological effects such as congested blood vessels and variable degrees of leukocytes infiltration	83.69	27.19	40.55	49.47	1.21				analgesic potency relative to ibuprofen (thermal pain (hot plate); 0.48 mmol/kg): 1.03 to 1.27 times; Ulcerogenicity UI (ulcer index) (rat stomach mucosa): 2.26; IC50 [3]: 1720 nM; SI (COX-2 selectivity index = IC50 of COX-1/IC50 of COX-2) [3]: 2.91; IC50 (COX-1 (ovine)): 5010 nM
N#Cc1c(NC(=O)C(=O)Nc2c(C#N)c3n(c2C(=O)Nc2ccc(Br)cc2)CCC3)c(C(=O)Nc2ccc(Br)cc2)n2c1CCC2 [Compound 18, N^1,N^2-Bis(5-((4-Bromophenyl)carbamoyl)-7-cycno-2,3-dihydro-1H-pyrrolizin-6-yl)oxalamide]	lower than that of ibuprofen	little histopathological effects such as congested blood vessels and variable degrees of leukocytes infiltration	68.18	6.91	17.72	22.42	0.55				melting point: 318 to 321 °C; Ulcerogenicity UI (ulcer index) (rat stomach mucosa): 4.41; IC50 [3]: 850 nM; SI (COX-2 selectivity index = IC50 of COX-1/IC50 of COX-2) [3]: 6.03; IC50 (COX-1 (ovine)): 5100 nM; anti-inflammatory activity (in words) [2]: lower activity than both ibuprofen and the parent compound 12
O=C(c1ccccc1)c1ccc2n1CCC2C(=O)O (stereo not drawn) [Ketorolac, ketorolac]									1230	3600	selectivity ratio for COX-1 (COX-1; COX-1 over COX-2): 2.9
CC1(C)Cc2c(-c3ccccc3)c(-c3ccc(Cl)cc3)c(CC(=O)O)n2C1 [Licofelone, licofelone]								180	210	> 30000	
